According to patent publication US20130178450A1, “METHODS FOR INCREASING THE PRODUCTION OR ACTIVITY OF CATALASE” (Nestec SA, priority 2010, published 2013):

Experiments:
Type in all cases: cell-based, canine
catalase (CAT) [1] = experiment: Enzymatic activity of catalase in treated cbTCC cells (Cayman kit, Purpald); conditions: 24 hours, mean ± standard deviation, control 11.20 ± 0.43
Procedure: Treatments were done in at least triplicates. […] The enzymatic activity of catalase was determined using assay kits from Cayman Chemical Co., Ann Arbor, Mich., according to manufacturer's directions. The assay utilized the peroxidatic function of CAT for determination of enzymatic activity, based on the reaction of the enzyme with methanol in the presence of an optimal concentration of H2O2. […] Purpald specifically forms a bicyclic heterocycle with aldehydes, which upon oxidation changes from colorless to a purple color. The absorbance was read at 540 nm using a spectrophotometric plate reader. Results were calculated from standard curve from known samples and by using the provided equations. From that, the enzymatic activity of CAT was derived as nmol/min/ml CAT. Samples were done in triplicate. A one-tail t-test assuming equal variance was performed to determine significance.

CAT = experiment: Quantitative PCR gene expression of CAT in cbTCC cells; conditions: 24 hours, normalized to Cyclophilin A, mean ± SEM, control 1.86 ± 0.11
Cu/ZnSOD = experiment: Quantitative PCR gene expression of Cu/ZnSOD in cbTCC cells; conditions: 24 hours, normalized to Cyclophilin A, mean ± SEM, control 1.11 ± 0.02
MnSOD = experiment: Quantitative PCR gene expression of MnSOD in cbTCC cells; conditions: 24 hours, normalized to Cyclophilin A, mean ± SEM, control 1.28 ± 0.05
PTHrP = experiment: Quantitative PCR gene expression of PTHrP in cbTCC cells; conditions: 24 hours, normalized to Cyclophilin A, mean ± SEM, control 1.35 ± 0.09
catalase (CAT) [2] = experiment: Western blot analysis of catalase protein expression in cbTCC cells; conditions: 10^−9M, 24 hours, normalized to β-actin, control = 100 percent, ± standard deviation
Procedure: (§1) Treatments were done in at least triplicates. […] Harvested cells were homogenized, and analyzed for the production of manganese superoxide dismutase (MnSOD), copper/zinc superoxide dismutase (Cu/ZnSOD), catalase (CAT), and glutathione peroxidase (GPX). Cell lysates were collected after centrifugation, and total protein was quantitated. […] Transblotted membranes were blocked overnight at 4° C. with the addition of 5% skim milk in Tris-buffered saline (TBS). The membranes were cut at the molecular weight of 37 kD (green band) and 25 kD (pink band). The top part of the membranes were stained for CAT, GPX, and β-actin, and the bottom part for MnSOD and Cu/ZnSOD. The primary antibodies for specific proteins were used at the following dilutions: […] Secondary antibodies are their respective IgG-HRP conjugates used at 1:2000. […] CAT, MnSOD and Cu/ZnSOD, n=7; GPX, n=4. Prior to transforming data as percent of control, a one-tail paired t-test assuming equal variance was performed to determine significance.

[3] = test system: manganese superoxide dismutase (MnSOD); experiment: Western blot analysis of MnSOD protein expression in cbTCC cells; conditions: 10^−9M, 24 hours, normalized to β-actin, control = 100 percent, ± standard deviation
Procedure: as §1

[4] = test system: copper/zinc superoxide dismutase (Cu/ZnSOD); experiment: Western blot analysis of Cu/ZnSOD protein expression in cbTCC cells; conditions: 10^−9M, 24 hours, normalized to β-actin, control = 100 percent, ± standard deviation
Procedure: as §1

[5] = test system: glutathione peroxidase (GPX); experiment: Western blot analysis of GPX protein expression in cbTCC cells; conditions: 10^−9M, 24 hours, normalized to β-actin, control = 100 percent, ± standard deviation
Procedure: as §1

VDR = experiment: Quantitative PCR gene expression of VDR in cbTCC cells; conditions: 24 hours, normalized to Cyclophilin A, mean ± SEM, control 2.09 ± 0.19

Structure (SMILES)	Enzymatic activity of catalase (catalase (CAT) [1]; 10^−9M)	Enzymatic activity of catalase (catalase (CAT) [1]; 10^−7M)	CAT gene expression value by quantitative PCR (CAT; 10^−7 M)	CAT gene expression value by quantitative PCR (CAT; 10^−9 M)	Cu/ZnSOD gene expression value by quantitative PCR (Cu/ZnSOD; 10^−7 M)	Cu/ZnSOD gene expression value by quantitative PCR (Cu/ZnSOD; 10^−9 M)	MnSOD gene expression value by quantitative PCR (MnSOD; 10^−7 M)	MnSOD gene expression value by quantitative PCR (MnSOD; 10^−9 M)	PTHrP gene expression value by quantitative PCR (PTHrP; 10^−7 M)	PTHrP gene expression value by quantitative PCR (PTHrP; 10^−9 M)	Catalase protein expression, percent intensity of the protein band relative to the control (catalase (CAT) [2])	MnSOD protein expression, percent intensity of the protein band relative to the control [3]	Cu/ZnSOD protein expression, percent intensity of the protein band relative to the control [4]	GPX protein expression, percent intensity of the protein band relative to the control [5]	VDR gene expression value by quantitative PCR (VDR; 10^−7 M)	VDR gene expression value by quantitative PCR (VDR; 10^−9 M)
C=C1C(=CC=C2CCCC3(C)C(C(C)CC#CC(C)(C)O)=CCC23)CC(O)CC1O (stereo not drawn) [Analog V, 1α,25-dihydroxy-16-ene-23-yne-vitamin D3]	13.93 ± 0.53 nmol/min/mL															
C=C1/C(=C\C=C2/CCC[C@]3(C)[C@@H]([C@H](C)CCCC(C)(C)O)CC[C@@H]23)C[C@@H](O)C[C@@H]1O [Calcitriol, 1α,25-dihydroxyvitamin D3]	12.51 ± 0.42 nmol/min/mL	12.24 ± 0.80 nmol/min/mL	2.60 ± 0.11	2.13 ± 0.06	1.18 ± 0.03	1.16 ± 0.02	1.05 ± 0.03	1.15 ± 0.04	1.16 ± 0.05	1.36 ± 0.11						
C=C1/C(=C\C=C2/CCC[C@]3(C)[C@@H]([C@H](C)/C=C/C=C/C(O)(CC)CC)CC[C@@H]23)C[C@@H](O)C[C@@H]1O [Seocalcitol, 1α,25-dihydroxy-22,24-diene-24,26,27-trihomovitamin D]	13.99 ± 0.99 nmol/min/mL		2.66 ± 0.08	2.55 ± 0.13	1.17 ± 0.01	1.20 ± 0.07	1.11 ± 0.05	1.16 ± 0.05	1.20 ± 0.07	1.30 ± 0.02	162.68 ± 39.88%	113.48 ± 20.56%	101.27 ± 26.41%	81.85 ± 37.45%	1.99 ± 0.09	1.45 ± 0.10
